Like-named read-outs stand apart in the source and are kept apart here.
Experiments:
[1] = Toxicity observations and necropsy in LP-BM5 infected mice; type: in vivo, C57BL/6 mice
Protocol: Disease progression was monitored by measuring serum IgM levels by ELISA on all animals at monthly intervals during the course of disease. Three mice per group were randomly selected and sacrificed at monthly intervals (end of month one through four) of the study. Disease scores for each animal were recorded weekly based upon palpation of lymph nodes and spleen. Complete gross necropsies were performed on these euthanized animals and the ratio of recorded spleen to body weights was an additional indicator of diseases progression. […] Infection was quantified by ecotropic virus XC plaque assays of spleens removed from the interim sacrificed animals. The study was to be terminated when mice were either dead or disease scores were +4 in more than 50% of the vehicle-treated MAIDS controls (Group 1), which occurred at 19 weeks post-inoculation of the virus pool. However, as the remaining mice in Group 1 were slow to progress towards more severe disease (FIG. 5) or death (FIG. 6), the study was extended until a termination date of 28 weeks post-inoculation.

[2] = Plasma pharmacokinetics of nicotinylalanine after i.v., i.p. and oral administration; type: in vivo, C57BL/6 mice; details: for bioavailability / half-life / Tmax: 400 mg/kg; for Tmax: read-out: Time of peak plasma level of NAL (converted); for k el: read-out: Ke (converted)
Protocol: The purpose of this study was to determine the plasma pharmacokinetics of nicotinylalanine in fasted, female C57BL/6 mice after intravenous (i.v.), intraperitoneal (i.p.), and oral (p.o.) administration of equivalent doses of nicotinylalanine at 400 mg/kg body weight. The analytic methods used in these studies were the same as described in Example 1 and Table 1 for Metabolic Studies.
Bioavailability of nicotinylalanine after p.o. and i.p. administration was determined by comparison of the areas under the plasma time curves with the area under the plasma time curve for the i.v. administration of an equivalent dose at 400 mg/kg into the tail vein. Time points were evaluated from five minutes to 1,440 minutes (24 hours) after dosing, although the rapid pharmacokinetics under each dosing regimen focused the time parameters to less than six hours.
Although there are several compartmental analyses which could be used to model the pharmacokinetic data, for derivation of pharmacokinetic parameters a simple non-compartmental analysis was selected. The computer program used to generate the parameters (Table 5) and for fitting the curves (FIGS. 7, 8) was the Lagran Program using the Lagrange Function. See, Rocci M. L. and Jusko W. J. 1983, "Lagran Program for Area and Moments in Pharmacokinetic Analysis", Comp. Prog. Biomed. 16, 203-212; and Yeh K. C. and Quan K. C. 1978, "A Comparison of Numerical Integrating Algorithms by Trapezoidal Lagrange and Spline Approximations", J. Pharmacokinet. Biopharmacol. 6, 79-93.

[3] = within the first month of dosing

In the case of `Cc1cn([C@H]2C[C@H](N=[N+]=[N-])[C@@H](CO)O2)c(=O)[nH]c1=O` [AZT, 3'azido-3'deoxythymidine, reference compound], the “Deaths prior to termination of the study” value ([1]; 28-week study) is reported as “one mouse”, the “Necropsy finding in mice that died” value ([1]; Groups 4 and 7) is reported as “distended food filled small and large intestines” and the “Side-effect: melaninization” value [1, 3] is reported as “melaninization of extremities, tail, and ears”. For the same molecule, the “Side-effect: red-blood cell” value [1, 3] was “red-blood cell toxicities”.

For `NC(CC(=O)c1cccnc1)C(=O)O` (racemic) [NAL, γ-(3-pyridyl)-γ-oxo-α-aminobutyrate], the CL ([2]; NAL 400 mg/kg, i.p., fasted female mice) was 31.6, the CL ([2]; NAL 400 mg/kg, p.o., fasted female mice) was 50.2 and the “Volume of distribution (Vdss), in words” value ([2]; especially in the oral dosage form) was “consistent with a compound well-distributed in aqueous compartments”. For the same molecule, the “Bioavailability i.p. versus i.v. or oral, in words” value ([2]; i.p. compared to i.v. or oral) was “apparently greater however when the i.p. route is used”, the bioavailability ([2]; mouse, plasma, ip, NAL 400 mg/kg, i.p., fasted female mice, read-out: F (fraction bioavailable)) was 183% and the half-life ([2]; mouse, plasma, ip, NAL 400 mg/kg, i.p., fasted female mice, read-out: t1/2) was 24.9 min. The half-life ([2]; mouse, plasma, ip, i.p., read-out: t1/2 (half-life of plasma nicotinylalanine)) was roughly 25 min, the Tmax ([2]; mouse, plasma, ip) was roughly 5 min and the k el ([2]; mouse, plasma, ip, NAL 400 mg/kg, i.p., fasted female mice) was 0.000463 s⁻¹. It also gave a Vd/F ([2]; mouse, plasma, ip, NAL 400 mg/kg, i.p., fasted female mice, read-out: Vdss) of 0.821 L/kg, a half-life ([2]; mouse, plasma, iv, NAL 400 mg/kg, i.v., fasted female mice, read-out: t1/2) of 40.2 min and a half-life ([2]; mouse, plasma, iv, i.v., read-out: t1/2 (half-life of plasma nicotinylalanine)) of roughly 40 min. For the same molecule, the Tmax ([2]; mouse, plasma, iv) was roughly 5 min, the clearance ([2]; mouse, plasma, iv, NAL 400 mg/kg, fasted female mice) was 57.3 mL/min/kg and the k el ([2]; mouse, plasma, iv, NAL 400 mg/kg, i.v., fasted female mice) was 0.000287 s⁻¹. It also gave a Vd ([2]; mouse, plasma, iv, NAL 400 mg/kg, i.v., fasted female mice, read-out: Vdss) of 1.33 L/kg, a bioavailability ([2]; mouse, plasma, po, NAL 400 mg/kg, p.o., fasted female mice, read-out: F (fraction bioavailable)) of 105% and a half-life ([2]; mouse, plasma, po, NAL 400 mg/kg, p.o., fasted female mice, read-out: t1/2) of 58.7 min. The bioavailability ([2]; mouse, plasma, po, oral dose, read-out: fraction bioavailable (F)) was roughly 100%, the half-life ([2]; mouse, plasma, po, oral, read-out: t1/2 (half-life of plasma nicotinylalanine)) was roughly 60 min and the k el ([2]; mouse, plasma, po, NAL 400 mg/kg, p.o., fasted female mice) was 0.000197 s⁻¹. For the same molecule, the Vd/F ([2]; mouse, plasma, po, NAL 400 mg/kg, p.o., fasted female mice, read-out: Vdss) was 3.35 L/kg, the Tmax ([2]; mouse, plasma, oral gavage) was roughly 10 min and the “Nicotinamide plasma level versus control” value ([2]; oral NAL 400 mg/kg, transient) was “about twice control”. For the same molecule, the “t1/2 oral versus i.p.” value ([2]; oral compared with i.p. dose) was “approximately twice as long” and the “t1/2 oral versus i.v.” value ([2]; oral compared with i.v. dose) was “approximately one and a half (11/2) times as long”.

Reference: patent US5916906A, “Compositions comprising nicotinylalanine and an inhibitor of glycine conjugation or vitamin B6” (priority 1997, dated 1999)
